Molecules are shown by their SMILES. Counter-ions that a name gives are not always drawn.

Common to all, as to assay type: biochemical
What all share (settings): single concentration (200, 100 or 50 μM), in duplicate, versus the positive control (vehicle)

For assay [1], the target named is T1, DNA gyrase (Escherichia coli, UniProt P0AES4+P0AES6).
T1 construct: purchased Inspiralis, UK
Briefly: DNA gyrase supercoiling assay (E. coli). The protocol: (§1) The above compounds were tested for the inhibition of the enzyme DNA gyrase in a gyrase supercoiling assay and for the inhibition of the enzyme topoisomerase IV in a decatenation assay, in both Gram positive and Gram negative bacteria, according to the following methods.
(§2) Both the assays were carried out according to a set-up method modified from the article to Blanche F, et al. “Differential Behaviors of Staphylococcus aureus and Escherichia coli Type II DNA Topoisomerases”, Antimicrob.
(§3) The compounds were screened at single concentration (200, 100 or 50 μM), in duplicate.
(§4) Ciprofloxacin and novobiocin were used as reference compounds, at single concentration of 200 and 50 μM, respectively.
(§5) DNA Gyrase Supercoiling Assay.
(§6) Reagents from S. aureus and E. coli Gyrase Supercoiling Assay kits (Inspiralis, UK) were used. A master mix with a total volume sufficient for the number of reactions to perform was prepared with the following reagents: 5× assay buffer, relaxed pBR322 substrate (0.5 μg/reaction), RNase-DNase free water. Aliquotes of this mix were dispensed in each tube, then 10× compound stock solutions or vehicle control (DMSO), were added to each reaction tube.
(§7) Reaction was started with E. Coli (2 U/reaction) or S. aureus (1 U/reaction) gyrase enzyme addition.
(§8) A sample added with an equal volume of dilution buffer was used as negative control (without enzyme).
(§9) The reaction tubes were gentle vortexed and incubated 30 minutes at 37° C. Each reaction was stopped by adding 30 μl of Stop Buffer and 30 μl chloroform/isoamyl alcohol (24/1), briefly vortexed for 5-10 seconds and centrifuged at 20000×g for 2 minutes. Samples were loaded onto 1% agarose gel and subjected to electrophoresis for 1 hour at 80V constant voltage in TAE (40 mM Tris-acetate, 2 mM EDTA).
(§10) Data acquisition and analysis. Treatment of relaxed pBR322 with DNA gyrase converted the relaxed topoisomers (DNAs of different linking number) to the supercoiled form of the plasmid, which migrates faster on an agarose gel. An upper band might also be visible, which consists of open-circular (nicked) DNA which is present in the relaxed substrate but co-migrates with some of the relaxed topoisomers.
(§11) Bands were visualized by ethidium bromide staining (dil 1:20000) for 30 minutes followed by destaining in distilled water for 10 minutes.
(§12) In order to evaluate the compounds activity on the enzyme, the bands of supercoiled DNAs in the gel were photographed by a digital imaging system ImageQuant LAS 4000 (GE Healthcare) according to manufacturer's instructions.
(§13) The fluorescent intensity of each band was analysed by ImageQuant TL software and it was expressed as volume (volume of the uncalibrated quantity of material in the image feature after subtraction of the background intensity by using rolling ball method).
(§14) Each band intensity was compared, as percentage, to vehicle sample band intensity, which served as positive control, on the same gel.
(§15) Inhibitory activity was expressed as percent of inhibition versus the positive control.

The target in assay [2] is T2, Topoisomerase IV (Escherichia coli, UniProt P0AFI2+P20083).
T2 construct: purchased Inspiralis, UK
T2 sequence (P20083 whole entry): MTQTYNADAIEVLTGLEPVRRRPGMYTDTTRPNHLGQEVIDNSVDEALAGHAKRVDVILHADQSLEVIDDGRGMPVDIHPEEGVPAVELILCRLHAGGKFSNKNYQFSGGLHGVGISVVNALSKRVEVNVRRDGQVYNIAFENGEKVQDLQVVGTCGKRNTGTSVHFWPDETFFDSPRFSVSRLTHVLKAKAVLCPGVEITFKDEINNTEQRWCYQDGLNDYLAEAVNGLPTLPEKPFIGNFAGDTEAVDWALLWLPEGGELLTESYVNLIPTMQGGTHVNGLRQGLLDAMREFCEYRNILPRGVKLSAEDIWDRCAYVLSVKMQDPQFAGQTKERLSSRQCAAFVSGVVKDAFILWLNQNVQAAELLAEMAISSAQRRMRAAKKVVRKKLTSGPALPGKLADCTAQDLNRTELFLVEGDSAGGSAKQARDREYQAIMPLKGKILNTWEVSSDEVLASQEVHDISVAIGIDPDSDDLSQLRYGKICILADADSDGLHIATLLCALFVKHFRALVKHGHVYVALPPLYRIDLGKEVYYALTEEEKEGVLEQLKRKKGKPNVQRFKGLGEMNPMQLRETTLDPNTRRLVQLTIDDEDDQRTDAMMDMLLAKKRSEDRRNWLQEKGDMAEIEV
T2 sequence (P0AFI2 whole entry): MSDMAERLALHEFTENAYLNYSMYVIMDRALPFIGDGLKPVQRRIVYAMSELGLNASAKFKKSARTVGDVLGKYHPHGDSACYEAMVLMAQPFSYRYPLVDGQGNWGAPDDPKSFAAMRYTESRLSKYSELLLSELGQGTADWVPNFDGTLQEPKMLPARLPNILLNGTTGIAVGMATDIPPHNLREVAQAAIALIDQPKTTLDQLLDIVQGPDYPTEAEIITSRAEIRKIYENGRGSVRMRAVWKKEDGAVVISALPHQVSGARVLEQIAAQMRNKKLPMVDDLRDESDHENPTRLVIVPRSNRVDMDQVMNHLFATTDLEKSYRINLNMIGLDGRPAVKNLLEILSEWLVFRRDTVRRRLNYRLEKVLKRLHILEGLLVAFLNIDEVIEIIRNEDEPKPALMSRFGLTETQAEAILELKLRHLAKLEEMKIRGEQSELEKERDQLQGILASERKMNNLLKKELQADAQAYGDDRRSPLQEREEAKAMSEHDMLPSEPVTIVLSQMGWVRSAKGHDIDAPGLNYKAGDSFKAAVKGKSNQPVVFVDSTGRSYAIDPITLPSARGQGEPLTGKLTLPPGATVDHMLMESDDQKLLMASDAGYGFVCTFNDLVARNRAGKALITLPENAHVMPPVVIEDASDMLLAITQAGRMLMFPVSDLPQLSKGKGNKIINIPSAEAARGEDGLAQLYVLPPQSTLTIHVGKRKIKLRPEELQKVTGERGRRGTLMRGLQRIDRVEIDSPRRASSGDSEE
Briefly: Topoisomerase IV decatenation assay (E. coli). As for the experimental part:
as §1, §2, §3, §4
(§16) Topoisomerase IV Decatenation Assay
(§17) S. aureus and E. coli Topoisomerase IV decatenation kits (Inspiralis, UK) were used. A master mix with a total volume sufficient for the number of reactions to perform was prepared with the following reagents: 5× assay buffer (50 mM HEPES-KOH (pH 7.6), 100 mM potassium glutamate, 10 mM magnesium acetate, 10 mM DTT, 1 mM ATP, 50 μg/ml albumin), kDNA substrate (200 ng/reaction), RNase-DNase free water. Aliquots of this mix were dispensed in each tube, then 10× compound stock solutions or vehicle control (DMSO), were added in each reaction tube.
(§18) Reaction was started with Topoisomerase IV enzyme (0.5 U/reaction) addition.
as §8
(§19) The reaction tubes were gentle vortexed and incubated 30 minutes at 37° C. Each reaction was stopped by adding 30 μl of Stop Buffer and 30 μl of chloroform/isoamyl alcohol (24/1), briefly vortexed for 5-10 seconds and centrifuged at 20000×g for 2 minutes. Samples taken from the upper phase were loaded into 1% agarose gel and subjected to electrophoresis for 1 hour at 80V constant voltage in TAE (40 mM Tris-acetate, 2 mM EDTA).
(§20) Data acquisition and analysis. Due to the high molecular mass, kDNA could not enter an agarose gel under normal electrophoresis conditions, but remained in the wells. In the presence of Topo IV topoisomerase mini-circles (2.5 Kb) were released from kDNA by decatenation and were quickly and easily resolved in the gel at relatively high voltages.
as §11
(§21) For single concentration screening assay, in order to evaluate the compounds activity on the enzymes, the bands of decatenated DNAs in the gel were photographed by a digital imaging system ImageQuant LAS 4000 (GE Healthcare) according to manufacturer's instructions.
(§22) The fluorescent intensity of each band was analyzed by ImageQuant TL software and it was expressed as volume (volume of the uncalibrated quantity of material in the image feature after subtraction of the background intensity by using rolling ball method).
as §14, §15

Assay [3] has as its target T3, DNA gyrase (Staphylococcus aureus, UniProt P0A0K8+P20831).
T3 construct: purchased Inspiralis, UK
Briefly: DNA gyrase supercoiling assay (S. aureus). As for the experimental part:
as §1, §2, §3, §4, §5, §6, §7, §8, §9, §10, §11, §12, §13, §14, §15

Assay [4] has as its target T4, Topoisomerase IV (Staphylococcus aureus, UniProt P0C1S7+P0C1U9).
T4 construct: purchased Inspiralis, UK
Briefly: Topoisomerase IV decatenation assay (S. aureus). As for the experimental part:
as §1, §2, §3, §4, §16, §17, §18, §8, §19, §20, §11, §21, §22, §14, §15

T3 sequence (P20831 whole entry): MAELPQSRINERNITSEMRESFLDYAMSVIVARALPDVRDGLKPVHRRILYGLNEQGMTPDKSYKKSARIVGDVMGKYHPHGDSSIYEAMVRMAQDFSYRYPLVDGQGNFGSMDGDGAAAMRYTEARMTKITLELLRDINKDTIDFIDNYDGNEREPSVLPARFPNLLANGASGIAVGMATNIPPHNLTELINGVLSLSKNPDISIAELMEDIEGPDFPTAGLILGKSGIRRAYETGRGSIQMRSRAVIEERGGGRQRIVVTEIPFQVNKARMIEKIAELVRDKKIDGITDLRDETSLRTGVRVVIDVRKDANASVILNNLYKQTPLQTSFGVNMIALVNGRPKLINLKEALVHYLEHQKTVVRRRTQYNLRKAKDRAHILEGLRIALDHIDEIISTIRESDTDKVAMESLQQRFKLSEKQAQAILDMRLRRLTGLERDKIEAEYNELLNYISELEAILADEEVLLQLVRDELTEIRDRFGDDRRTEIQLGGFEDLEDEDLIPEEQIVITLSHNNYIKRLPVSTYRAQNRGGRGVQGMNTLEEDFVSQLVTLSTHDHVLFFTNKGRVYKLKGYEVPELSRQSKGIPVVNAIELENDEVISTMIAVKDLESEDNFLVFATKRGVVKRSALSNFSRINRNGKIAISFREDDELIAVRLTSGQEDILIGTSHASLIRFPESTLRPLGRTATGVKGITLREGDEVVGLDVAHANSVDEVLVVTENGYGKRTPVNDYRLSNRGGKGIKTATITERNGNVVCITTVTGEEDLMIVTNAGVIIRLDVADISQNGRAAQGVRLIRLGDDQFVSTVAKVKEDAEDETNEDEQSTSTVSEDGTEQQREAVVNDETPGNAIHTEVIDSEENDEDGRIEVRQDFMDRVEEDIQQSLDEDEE
T3 sequence (P0A0K8 whole entry): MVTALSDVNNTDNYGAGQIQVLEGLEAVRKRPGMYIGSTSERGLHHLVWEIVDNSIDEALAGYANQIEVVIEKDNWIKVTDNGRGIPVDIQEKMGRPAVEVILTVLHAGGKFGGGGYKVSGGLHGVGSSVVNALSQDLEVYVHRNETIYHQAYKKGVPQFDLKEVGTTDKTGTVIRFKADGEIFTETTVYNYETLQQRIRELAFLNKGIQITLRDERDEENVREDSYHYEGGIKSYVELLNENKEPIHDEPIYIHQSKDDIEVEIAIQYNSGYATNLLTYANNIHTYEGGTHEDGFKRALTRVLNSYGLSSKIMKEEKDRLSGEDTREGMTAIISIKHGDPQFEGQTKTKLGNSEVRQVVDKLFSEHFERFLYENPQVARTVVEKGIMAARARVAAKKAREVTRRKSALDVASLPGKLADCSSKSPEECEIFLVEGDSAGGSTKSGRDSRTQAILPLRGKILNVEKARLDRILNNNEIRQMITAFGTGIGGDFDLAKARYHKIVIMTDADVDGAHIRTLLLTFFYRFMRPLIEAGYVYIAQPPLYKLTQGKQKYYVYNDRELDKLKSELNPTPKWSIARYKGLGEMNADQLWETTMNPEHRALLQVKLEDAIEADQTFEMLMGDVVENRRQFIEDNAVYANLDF
T1 sequence (P0AES4 whole entry, one chain of several): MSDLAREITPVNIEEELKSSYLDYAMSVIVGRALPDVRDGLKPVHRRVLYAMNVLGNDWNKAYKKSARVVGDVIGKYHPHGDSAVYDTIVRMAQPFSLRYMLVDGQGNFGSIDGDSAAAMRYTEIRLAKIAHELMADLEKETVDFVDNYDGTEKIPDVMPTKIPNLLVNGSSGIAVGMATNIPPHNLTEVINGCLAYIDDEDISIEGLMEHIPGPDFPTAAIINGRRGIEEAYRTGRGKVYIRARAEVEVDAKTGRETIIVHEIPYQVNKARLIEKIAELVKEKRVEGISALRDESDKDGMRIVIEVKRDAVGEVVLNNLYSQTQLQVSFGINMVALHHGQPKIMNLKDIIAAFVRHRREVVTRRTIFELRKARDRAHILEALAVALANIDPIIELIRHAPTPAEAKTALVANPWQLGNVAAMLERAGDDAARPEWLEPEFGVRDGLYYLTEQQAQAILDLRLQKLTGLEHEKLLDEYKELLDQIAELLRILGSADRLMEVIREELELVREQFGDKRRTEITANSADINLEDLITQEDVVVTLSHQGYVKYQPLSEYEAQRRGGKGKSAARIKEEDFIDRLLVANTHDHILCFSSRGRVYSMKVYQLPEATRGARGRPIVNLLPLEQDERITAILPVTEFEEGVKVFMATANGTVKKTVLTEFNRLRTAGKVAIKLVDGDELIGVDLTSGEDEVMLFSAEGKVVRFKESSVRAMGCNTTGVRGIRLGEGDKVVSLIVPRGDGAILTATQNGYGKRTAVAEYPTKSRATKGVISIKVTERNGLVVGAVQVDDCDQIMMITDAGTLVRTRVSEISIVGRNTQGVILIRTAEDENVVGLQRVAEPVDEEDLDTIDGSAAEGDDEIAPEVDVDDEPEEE

Consider `O=c1cc(NCCCN2CCN(c3nccc4ccc(F)cc34)CC2)c2ccc(O)cc2o1` [Compound 107, 4-({3-[4-(7-fluoroisoquinolin-1-yl)piperazin-1-yl]propyl}amino)-7-hydroxy-2H-chromen-2-one hydrochloride], for which the “% inhibition DNA gyrase” value at DNA gyrase [1] is reported as 92%; at DNA gyrase [3] it was 74%. Moreover, the “% inhibition Topo IV” value at Topoisomerase IV [2] and on Topoisomerase IV [4] was “n/a (n/a = not active)” throughout.

For the compound `Cc1c(NCCCN2CCN(c3nccc4ccc(F)cc34)CC2)c2ccccc2oc1=O` [Compound 97, 4-({3-[4-(7-fluoroisoquinolin-1-yl)piperazin-1-yl]propyl}amino)-3-methyl-2H-chromen-2-one hydrochloride], the “% inhibition DNA gyrase” value on DNA gyrase [1] is on record as 85%; at DNA gyrase [3] it was 86%. For the same compound, the “% inhibition Topo IV” value at Topoisomerase IV [2] and at Topoisomerase IV [4] was “n/a (n/a = not active)” in each case.

Turning to `Cc1cc2ccccc2c(N2CCN(CCCNC(=O)c3cccnc3)CC2)n1` [Compound 21, N-{3-[4-(3-methylisoquinolin-1-yl)piperazin-1-yl]propyl}pyridine-3-carboxamide hydrochloride], the “% inhibition DNA gyrase” value at DNA gyrase [1] is “n/a (n/a = not active)”; at DNA gyrase [3], 67%. In addition, the “% inhibition Topo IV” value on Topoisomerase IV [2] and at Topoisomerase IV [4] was “n/a (n/a = not active)” throughout.

As for `O=C(O)[C@@H](NC[C@H](O)CN1CCN(c2nccc3ccc(F)cc23)CC1)C1CCCCC1` [Compound 138, (2S)-cyclohexyl({(2S)-3-[4-(7-fluoroisoquinolin-1-yl)piperazin-1-yl]-2-hydroxypropyl}amino)acetic acid], the “% inhibition DNA gyrase” value is recorded as “n/a (n/a = not active)” at DNA gyrase [1] and 89% at DNA gyrase [3]. The “% inhibition Topo IV” value on Topoisomerase IV [2] is listed as “n/a (n/a = not active)”.

As for `O=C(O)CC(NC[C@H](O)CN1CCN(c2nccc3ccc(F)cc23)CC1)C1CCCCC1` (stereo partly drawn) [Compound 137, 3-cyclohexyl-3-({(2S)-3-[4-(7-fluoroisoquinolin-1-yl)piperazin-1-yl]-2-hydroxypropyl}amino)propanoic acid], the results for the “% inhibition DNA gyrase” value on DNA gyrase [1] and at DNA gyrase [3] were 57% and 75%, respectively. Moreover, the “% inhibition Topo IV” value on Topoisomerase IV [2] is “n/a (n/a = not active)”.

For `c1ccc2sc(CNCCCN3CCN(c4nccc5ccccc45)CC3)cc2c1` [Compound 119, N-(1-benzothiophen-2-ylmethyl)-3-[4-(isoquinolin-1-yl)piperazin-1-yl]propan-1-amine], the “% inhibition DNA gyrase” value is on record as “n/a (n/a = not active)” at DNA gyrase [1] and 60% at DNA gyrase [3]. The “% inhibition Topo IV” value on Topoisomerase IV [2] is on record as “n/a (n/a = not active)”.

With `c1ccc2c(N3CCN(CCNCc4ccc5c(c4)OCO5)CC3)nccc2c1` [Compound 130, N-(1,3-benzodioxol-5-ylmethyl)-2-[4-(isoquinolin-1-yl)piperazin-1-yl]ethanamine], the results for the “% inhibition DNA gyrase” value on DNA gyrase [1] and on DNA gyrase [3] were “n/a (n/a = not active)” and 74%, respectively. The “% inhibition Topo IV” value on Topoisomerase IV [2] is reported as “n/a (n/a = not active)”.

With `O=C(O)[C@H](NC[C@@H](O)CN1CCN(c2nccc3ccc(F)cc23)CC1)C1CCCCC1` [Compound 139, (2R)-cyclohexyl({(2R)-3-[4-(7-fluoroisoquinolin-1-yl)piperazin-1-yl]-2-hydroxypropyl}amino)acetic acid], the results for the “% inhibition DNA gyrase” value at DNA gyrase [1] and on DNA gyrase [3] were “n/a (n/a = not active)” and 54%, respectively. For the same compound, the “% inhibition Topo IV” value at Topoisomerase IV [2] is reported as “n/a (n/a = not active)”.

On to `O=C(O)[C@@H](NC[C@@H](O)CN1CCN(c2nccc3ccc(F)cc23)CC1)C1CCCCC1` [Compound 140, (2S)-cyclohexyl({(2R)-3-[4-(7-fluoroisoquinolin-1-yl)piperazin-1-yl]-2-hydroxypropyl}amino)acetic acid], for which the “% inhibition DNA gyrase” value on DNA gyrase [1] came to 68%; at DNA gyrase [3], 92%. Besides, the “% inhibition Topo IV” value on Topoisomerase IV [2] was “n/a (n/a = not active)”.

Regarding `COC(=O)CC(NCCNC1CCN(c2nccc3ccc(F)cc23)CC1)C1CCCCC1` (stereo not drawn) [Compound 189, methyl 3-cyclohexyl-3-[(2-{[1-(7-fluoroisoquinolin-1-yl)piperidin-4-yl]amino}ethyl)amino]propanoate], the “% inhibition DNA gyrase” value was “n/a (n/a = not active)” at DNA gyrase [1] and 84% on DNA gyrase [3]. Also, on Topoisomerase IV [2], the “% inhibition Topo IV” value is “n/a (n/a = not active)”.

`O=c1cc(NCCCN2CCN(c3nccc4ccccc34)CC2)c2ccccc2[nH]1` [Compound 58, 4,4-({3-[4-(isoquinolin-1-yl)piperazin-1-yl]propyl}amino)quinolin-2(1H)-one hydrochloride]: the “% inhibition DNA gyrase” value is given as 100% at DNA gyrase [1] and “n/a (n/a = not active)” on DNA gyrase [3]. Moreover, the “% inhibition Topo IV” value at Topoisomerase IV [2] is reported as “n/a (n/a = not active)”.

For the compound `c1ccc2c(N3CCN(CCCNCc4ccc5c(c4)OCO5)CC3)nccc2c1` [Compound 120, N-(1,3-benzodioxol-5-ylmethyl)-3-[4-(isoquinolin-1-yl)piperazin-1-yl]propan-1-amine], the “% inhibition DNA gyrase” value is “n/a (n/a = not active)” at DNA gyrase [1] and 76% at DNA gyrase [3]. Further, the “% inhibition Topo IV” value at Topoisomerase IV [2] was “n/a (n/a = not active)”.

With `O=C(CN1CCC(Nc2cc(=O)oc3ccccc23)CC1)Nc1nccc2ccccc12` [Compound 117, N-(isoquinolin-1-yl)-2-{4-[(2-oxo-2H-chromen-4-yl)amino]piperidin-1-yl}acetamide], the “% inhibition DNA gyrase” value at DNA gyrase [1] is recorded as 75%; at DNA gyrase [3], “n/a (n/a = not active)”. Further, the “% inhibition Topo IV” value at Topoisomerase IV [2] is listed as “n/a (n/a = not active)”.

On to `O=C(CC(NCCNC1CCN(c2nccc3ccc(F)cc23)CC1)C1CCCCC1)NO` (stereo not drawn) [Compound 191, 3-cyclohexyl-3-[(2-{[1-(7-fluoroisoquinolin-1-yl)piperidin-4-yl]amino}ethyl)amino]-N-hydroxypropanamide], for which the “% inhibition DNA gyrase” value on DNA gyrase [1] is given as “n/a (n/a = not active)”; on DNA gyrase [3] it was 81%. Moreover, the “% inhibition Topo IV” value on Topoisomerase IV [2] was “n/a (n/a = not active)”.

As to `O=C(O)CC(NC[C@@H](O)CN1CCN(c2nccc3ccc(F)cc23)CC1)C1CCCCC1` (stereo partly drawn) [Compound 136, 3-cyclohexyl-3-({(2R)-3-[4-(7-fluoroisoquinolin-1-yl)piperazin-1-yl]-2-hydroxypropyl}amino)propanoic acid], the “% inhibition DNA gyrase” value is 57% on DNA gyrase [1] and 75% on DNA gyrase [3]. The “% inhibition Topo IV” value on Topoisomerase IV [2] was “n/a (n/a = not active)”.

Regarding `OCCC(NCCNC1CCN(c2nccc3ccc(F)cc23)CC1)C1CCCCC1` (stereo not drawn) [Compound 167, 3-cyclohexyl-3-[(2-{[1-(7-fluoroisoquinolin-1-yl)piperidin-4-yl]amino}ethyl)amino]propan-1-ol], the “% inhibition DNA gyrase” value on DNA gyrase [1] is listed as “n/a (n/a = not active)”; on DNA gyrase [3], 70%. Besides, the “% inhibition Topo IV” value at Topoisomerase IV [2] is reported as “n/a (n/a = not active)”.

The record behind these values is patent US10369130B2, “Antibacterial compounds” (AZIENDE CHIMICHE RIUNITE ANGELINI FRANCESCO A.C.R.A.F. …, priority 2014, dated 2019).
